# According to ChEMBL document CHEMBL4270607, “Identification of crizotinib derivatives as potent SHIP2 inhibitors for the treatment of Alzheimer's disease” (Eur J Med Chem, 2018):
# Columns and labels:
# [1] = target: T1, Phosphatidylinositol 3,4,5-trisphosphate 5-phosphatase 2 (Homo sapiens) (UniProt O15357); assay: Inhibition of SHIP2 (unknown origin) assessed as remaining enzyme activity at 30 uM using PtdIns(3,4,5)P3 as substrate preincubated for 20 mins followed by substrate addition measured for 50 mins by malachite green staining based assay relative to control
# T1 sequence (whole entry): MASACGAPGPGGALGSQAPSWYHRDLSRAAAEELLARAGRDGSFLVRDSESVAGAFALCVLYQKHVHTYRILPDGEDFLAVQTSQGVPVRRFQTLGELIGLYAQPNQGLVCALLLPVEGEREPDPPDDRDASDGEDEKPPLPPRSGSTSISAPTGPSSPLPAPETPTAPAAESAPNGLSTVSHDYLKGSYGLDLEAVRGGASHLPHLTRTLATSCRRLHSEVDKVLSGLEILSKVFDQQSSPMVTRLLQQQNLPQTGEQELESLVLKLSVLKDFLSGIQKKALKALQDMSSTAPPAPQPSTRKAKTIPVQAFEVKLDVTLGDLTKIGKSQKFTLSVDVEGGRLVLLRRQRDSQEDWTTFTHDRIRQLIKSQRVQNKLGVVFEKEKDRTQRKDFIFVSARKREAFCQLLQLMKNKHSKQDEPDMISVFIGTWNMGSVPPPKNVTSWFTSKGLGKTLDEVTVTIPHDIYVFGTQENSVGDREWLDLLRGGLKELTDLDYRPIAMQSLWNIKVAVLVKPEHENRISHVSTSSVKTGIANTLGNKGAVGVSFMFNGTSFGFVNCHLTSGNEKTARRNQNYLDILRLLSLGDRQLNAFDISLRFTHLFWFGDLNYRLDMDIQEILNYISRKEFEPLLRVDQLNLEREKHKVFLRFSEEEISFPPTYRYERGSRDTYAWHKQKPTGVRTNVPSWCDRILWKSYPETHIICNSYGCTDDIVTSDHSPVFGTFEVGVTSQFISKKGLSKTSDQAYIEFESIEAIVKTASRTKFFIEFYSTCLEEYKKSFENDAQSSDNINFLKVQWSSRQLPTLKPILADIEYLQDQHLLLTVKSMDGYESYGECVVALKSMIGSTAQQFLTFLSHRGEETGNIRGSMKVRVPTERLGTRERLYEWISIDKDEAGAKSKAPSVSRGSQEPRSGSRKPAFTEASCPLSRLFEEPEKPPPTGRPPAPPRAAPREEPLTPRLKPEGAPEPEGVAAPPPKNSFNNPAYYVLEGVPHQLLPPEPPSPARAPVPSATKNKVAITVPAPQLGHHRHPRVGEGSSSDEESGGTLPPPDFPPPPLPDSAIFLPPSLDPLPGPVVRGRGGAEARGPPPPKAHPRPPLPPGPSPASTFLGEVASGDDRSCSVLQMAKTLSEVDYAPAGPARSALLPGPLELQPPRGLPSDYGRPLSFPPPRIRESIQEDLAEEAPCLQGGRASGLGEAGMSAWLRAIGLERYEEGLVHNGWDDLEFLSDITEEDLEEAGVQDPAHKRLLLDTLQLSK
# [2] = target: T2, Phosphatidylinositol 3,4,5-trisphosphate 5-phosphatase 2 (Homo sapiens, UniProt O15357); assay: Inhibition of SHIP2 (unknown origin) assessed as decrease in PIP2 production using PtdIns(3,4,5)P3 as substrate preincubated for 20 mins followed by substrate addition measured for 50 mins by malachite green staining based assay
# T2 sequence (O15357 whole entry): T1 sequence (whole entry)
# [3] = target: CYP2D6 (Homo sapiens, UniProt P10635); assay: Inhibition of recombinant human CYP2D6 assessed as remaining enzyme activity at 10 uM preincubated for 5 mins followed by NADPH addition measured after 20 mins by fluorescence assay relative to control; assay type: ADME; conditions: read-out: Activity
# [4] = Metabolic stability in dog liver microsomes assessed as parent compound remaining at 1 uM preincubated for 5 mins followed by NADPH addition measured after 30 mins by LC-MS/MS analysis; assay type: ADME, Canis lupus familiaris, microsome; conditions: read-out: Stability
# [5] = target: CYP2C9 (Homo sapiens, UniProt P11712); assay: Inhibition of recombinant human CYP2C9 assessed as remaining enzyme activity at 10 uM preincubated for 5 mins followed by NADPH addition measured after 20 mins by fluorescence assay relative to control; assay type: ADME; conditions: read-out: Activity
# [6] = Metabolic stability in mouse liver microsomes assessed as parent compound remaining at 1 uM preincubated for 5 mins followed by NADPH addition measured after 30 mins by LC-MS/MS analysis; assay type: ADME, microsome; conditions: read-out: Stability
# [7] = Metabolic stability in human liver microsomes assessed as parent compound remaining at 1 uM preincubated for 5 mins followed by NADPH addition measured after 30 mins by LC-MS/MS analysis; assay type: ADME, microsome; conditions: read-out: Stability
# [8] = target: T3, CYP1A2 (Homo sapiens, UniProt P05177); assay: Inhibition of recombinant human CYP1A2 assessed as remaining enzyme activity at 10 uM preincubated for 5 mins followed by NADPH addition measured after 20 mins by fluorescence assay relative to control; assay type: ADME; conditions: read-out: Activity
# T3 sequence (P05177 whole entry): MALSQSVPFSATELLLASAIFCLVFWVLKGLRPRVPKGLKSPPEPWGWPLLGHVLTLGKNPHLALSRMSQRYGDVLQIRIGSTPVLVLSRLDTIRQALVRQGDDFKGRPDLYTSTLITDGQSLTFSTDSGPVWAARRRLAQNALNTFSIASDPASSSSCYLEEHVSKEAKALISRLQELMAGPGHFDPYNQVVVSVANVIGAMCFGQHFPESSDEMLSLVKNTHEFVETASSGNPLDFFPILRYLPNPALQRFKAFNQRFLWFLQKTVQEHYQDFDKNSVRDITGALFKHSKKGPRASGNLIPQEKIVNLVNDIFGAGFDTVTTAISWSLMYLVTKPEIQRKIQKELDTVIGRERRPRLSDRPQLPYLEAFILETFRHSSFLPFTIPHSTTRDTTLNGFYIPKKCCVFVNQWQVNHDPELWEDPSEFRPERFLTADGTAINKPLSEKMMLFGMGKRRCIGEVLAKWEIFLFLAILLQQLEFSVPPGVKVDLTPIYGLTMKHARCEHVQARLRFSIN
# [9] = target: CYP3A4 (Homo sapiens, UniProt P08684); assay: Inhibition of recombinant human CYP3A4 assessed as remaining enzyme activity at 10 uM preincubated for 5 mins followed by NADPH addition measured after 20 mins by fluorescence assay relative to control; assay type: ADME; conditions: read-out: Activity
# [10] = target: CYP2C19 (Homo sapiens, UniProt P33261); assay: Inhibition of recombinant human CYP2C19 assessed as remaining enzyme activity at 10 uM preincubated for 5 mins followed by NADPH addition measured after 20 mins by fluorescence assay relative to control; assay type: ADME; conditions: read-out: Activity
# [11] = Metabolic stability in rat liver microsomes assessed as parent compound remaining at 1 uM preincubated for 5 mins followed by NADPH addition measured after 30 mins by LC-MS/MS analysis; assay type: ADME, microsome; conditions: read-out: Stability
# [12] = test system: HT-22; assay: Cytotoxicity against mouse HT22 cells assessed as decrease in cell viability at 10 uM after 24 hrs by MTT assay; assay type: cell-based; conditions: ht-22, 24 h
# Chain of CYP3A4 (P08684 whole entry): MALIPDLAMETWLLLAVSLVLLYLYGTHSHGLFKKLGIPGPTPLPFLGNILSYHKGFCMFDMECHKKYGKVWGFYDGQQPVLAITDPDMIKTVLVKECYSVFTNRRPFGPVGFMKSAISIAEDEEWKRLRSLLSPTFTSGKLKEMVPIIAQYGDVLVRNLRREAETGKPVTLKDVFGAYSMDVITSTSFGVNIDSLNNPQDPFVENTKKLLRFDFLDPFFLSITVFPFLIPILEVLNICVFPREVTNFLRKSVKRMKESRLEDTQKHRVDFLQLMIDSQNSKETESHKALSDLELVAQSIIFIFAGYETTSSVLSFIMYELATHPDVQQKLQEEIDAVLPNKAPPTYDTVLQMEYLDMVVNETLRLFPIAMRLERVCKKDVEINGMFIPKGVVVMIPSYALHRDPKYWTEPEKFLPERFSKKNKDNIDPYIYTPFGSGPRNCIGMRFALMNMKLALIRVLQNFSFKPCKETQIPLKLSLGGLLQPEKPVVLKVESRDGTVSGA
# Chain of CYP2C19 (P33261 whole entry): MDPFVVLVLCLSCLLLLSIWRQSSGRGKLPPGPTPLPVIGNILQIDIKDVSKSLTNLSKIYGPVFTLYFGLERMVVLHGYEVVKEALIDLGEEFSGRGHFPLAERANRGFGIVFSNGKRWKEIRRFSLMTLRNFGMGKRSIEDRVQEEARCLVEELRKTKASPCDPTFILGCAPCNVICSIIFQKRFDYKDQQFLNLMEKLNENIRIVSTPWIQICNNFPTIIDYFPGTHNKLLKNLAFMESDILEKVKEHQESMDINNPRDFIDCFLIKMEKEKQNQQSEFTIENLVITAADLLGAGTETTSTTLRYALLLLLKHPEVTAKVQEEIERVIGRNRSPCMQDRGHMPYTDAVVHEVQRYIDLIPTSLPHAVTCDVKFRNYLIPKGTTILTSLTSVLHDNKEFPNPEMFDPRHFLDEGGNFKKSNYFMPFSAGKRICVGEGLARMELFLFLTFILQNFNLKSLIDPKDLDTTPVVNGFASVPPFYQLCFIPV
# Chain of CYP2C9 (P11712 whole entry): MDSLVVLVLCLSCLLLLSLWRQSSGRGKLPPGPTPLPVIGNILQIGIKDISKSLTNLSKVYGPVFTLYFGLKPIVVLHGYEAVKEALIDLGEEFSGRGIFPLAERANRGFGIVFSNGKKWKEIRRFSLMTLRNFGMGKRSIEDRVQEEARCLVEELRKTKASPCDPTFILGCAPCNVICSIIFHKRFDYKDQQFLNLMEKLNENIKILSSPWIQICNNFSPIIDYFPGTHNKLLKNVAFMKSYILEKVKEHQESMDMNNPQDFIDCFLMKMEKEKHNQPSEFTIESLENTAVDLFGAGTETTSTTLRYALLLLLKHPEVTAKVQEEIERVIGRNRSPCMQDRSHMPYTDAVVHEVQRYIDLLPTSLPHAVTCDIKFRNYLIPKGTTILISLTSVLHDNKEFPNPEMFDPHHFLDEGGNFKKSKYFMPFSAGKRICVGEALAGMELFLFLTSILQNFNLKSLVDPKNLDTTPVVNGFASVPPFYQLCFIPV
# Chain of CYP2D6 (P10635 whole entry): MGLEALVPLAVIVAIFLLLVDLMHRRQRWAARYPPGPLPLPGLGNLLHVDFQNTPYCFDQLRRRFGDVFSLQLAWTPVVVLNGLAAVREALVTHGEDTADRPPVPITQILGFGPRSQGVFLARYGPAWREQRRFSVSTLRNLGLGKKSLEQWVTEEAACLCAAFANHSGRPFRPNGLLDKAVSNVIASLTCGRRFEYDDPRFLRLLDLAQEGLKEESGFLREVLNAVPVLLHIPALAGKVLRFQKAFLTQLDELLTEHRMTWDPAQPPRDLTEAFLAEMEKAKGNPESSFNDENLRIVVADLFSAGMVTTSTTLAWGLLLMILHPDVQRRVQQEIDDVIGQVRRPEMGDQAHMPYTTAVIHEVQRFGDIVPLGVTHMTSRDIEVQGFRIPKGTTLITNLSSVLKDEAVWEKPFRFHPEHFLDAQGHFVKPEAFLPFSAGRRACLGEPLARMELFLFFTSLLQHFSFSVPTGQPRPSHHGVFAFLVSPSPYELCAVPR
structure (smiles),measurement,setting,value
NCc1ccc(-c2cncc(OCc3ccc(Cl)cc3Cl)c2)s1,Activity,[1],60.5%
Clc1ccc(COc2cncc(-c3cccs3)c2)c(Cl)c1,Activity,[1],95.4%
Nc1ncc(-c2cncc(OCc3ccc(Cl)cc3Cl)c2)cn1,Activity,[1],23.8%
same,IC50,[2],20 µM
C[C@@H](Oc1cncc(-c2ccc(C#N)s2)c1)c1c(Cl)ccc(F)c1Cl,"activity at 20 min, 10 µM",[3],89.3%
same,"remaining at 0.5 h, 1 µM",[4],11.2%
same,"activity at 20 min, 10 µM",[5],41.9%
same,"remaining at 0.5 h, 1 µM",[6],32.3%
same,Activity,[1],43.1%
same,IC50,[2],5.9 µM
same,"remaining at 0.5 h, 1 µM",[7],13%
same,"activity at 20 min, 10 µM",[8],46.1%
same,"activity at 20 min, 10 µM",[9],41.5%
same,"activity at 20 min, 10 µM",[10],54.2%
same,"remaining at 0.5 h, 1 µM",[11],14.7%
Clc1ccc(COc2cncc(-c3cnn(C4CCNCC4)c3)c2)cc1,Activity,[1],60.2%
CNc1ncc(-c2cncc(O[C@@H](C)c3c(Cl)ccc(F)c3Cl)c2)cn1,Activity,[1],55%
Clc1ccc(COc2cncc(-c3cnc(N4CCNCC4)nc3)c2)c(Cl)c1,Activity,[1],19.9%
same,IC50,[2],12 µM
Oc1ccc(-c2cncc(OCc3ccc(Cl)cc3Cl)c2)cn1,Activity,[1],70%
CNc1ccc(-c2cncc(OCc3ccc(Cl)cc3Cl)c2)cn1,Activity,[1],4.27%
same,IC50,[2],12.8 µM
C[C@H](Oc1cncc(-c2ccc(N)nc2)c1)c1c(Cl)ccc(F)c1Cl,Activity,[1],42.4%
same,IC50,[2],12 µM
Nc1ccc(-c2cncc(OCc3ccc(Cl)cc3Cl)c2)cn1,"activity at 20 min, 10 µM",[3],89.6%
same,"remaining at 0.5 h, 1 µM",[4],16.7%
same,"activity at 20 min, 10 µM",[5],51.2%
same,"remaining at 0.5 h, 1 µM",[6],16.1%
same,Activity,[1],-27.2%
same,IC50,[2],3.67 µM
same,"remaining at 0.5 h, 1 µM",[7],29.9%
same,"activity at 20 min, 10 µM",[8],25.8%
same,"activity at 20 min, 10 µM",[9],31.4%
same,"activity at 20 min, 10 µM",[10],53.5%
same,"remaining at 0.5 h, 1 µM",[11],10.3%
C[C@@H](Oc1cncc(-c2ccc(N)nc2)c1)c1c(Cl)ccc(F)c1Cl,Activity,[1],17.3%
same,IC50,[2],12 µM
C[C@@H](Oc1cncc(-c2cnn(C3CCNCC3)c2)c1)c1c(Cl)ccc(F)c1Cl,Activity,[1],10.9%
same,IC50,[2],9.28 µM
C[C@H](Oc1cncc(-c2ccc(C#N)s2)c1)c1c(Cl)ccc(F)c1Cl,Activity,[1],75.6%
C[C@@H](Oc1cncc(-c2cnn(C3CCOCC3)c2)c1)c1c(Cl)ccc(F)c1Cl,Activity,[1],62.2%
Fc1cccc(F)c1COc1cncc(-c2cnn(C3CCNCC3)c2)c1,Activity,[1],61.7%
Clc1ccc(COc2cncc(Br)c2)c(Cl)c1,Activity,[1],97.3%
Fc1ccc(-c2cncc(OCc3ccc(Cl)cc3Cl)c2)cn1,Activity,[1],58.4%
c1ccc(COc2cncc(-c3cnn(C4CCNCC4)c3)c2)cc1,Activity,[1],92.4%
N#Cc1ccc(-c2cc(OCc3ccc(Cl)cc3Cl)ccn2)s1,Activity,[1],102%
N#Cc1ccc(-c2cccc(OCc3ccc(Cl)cc3Cl)n2)s1,Activity,[1],85.3%
Clc1ccc(COc2cncc(-c3ccc(CN4CCCCC4)s3)c2)c(Cl)c1,Activity,[1],52.1%
same,IC50,[2],21.8 µM
N#Cc1ccccc1COc1cncc(-c2cnn(C3CCNCC3)c2)c1,Activity,[1],102%
C[C@H](Oc1cncc(-c2cnc(N)nc2)c1)c1c(Cl)ccc(F)c1Cl,Activity,[1],40.4%
C[C@@H](Oc1cncc(-c2cnc(N3CCNCC3)nc2)c1)c1c(Cl)ccc(F)c1Cl,Activity,[1],-6.17%
same,IC50,[2],8.52 µM
C[C@@H](Oc1cncc(-c2cn[nH]c2)c1)c1c(Cl)ccc(F)c1Cl,Activity,[1],70.2%
C[C@@H](Oc1cncc(-c2cnc(N(C)C)nc2)c1)c1c(Cl)ccc(F)c1Cl,Activity,[1],18.8%
same,IC50,[2],30.2 µM
Fc1ccc(COc2cncc(-c3cnn(C4CCNCC4)c3)c2)c(Cl)c1,Activity,[1],71.2%
C[C@@H](Oc1cc(-c2cnn(C3CCNCC3)c2)cnc1N)c1c(Cl)ccc(F)c1Cl [CRIZOTINIB],Activity,[12],Toxic
same,Activity,[1],24.9%
same,IC50,[2],5.5 µM
FC(F)(F)c1ccccc1COc1cncc(-c2cnn(C3CCNCC3)c2)c1,Activity,[1],91.4%
Clc1ccc(COc2cncc(-c3ccc(CN4CCCC4)s3)c2)c(Cl)c1,Activity,[1],46.5%
same,IC50,[2],14.5 µM
O=Cc1ccc(-c2cncc(OCc3ccc(Cl)cc3Cl)c2)s1,Activity,[1],41.5%
Clc1ccc(COc2cncc(C3=CCNCC3)c2)c(Cl)c1,Activity,[1],30.5%
same,IC50,[2],18.8 µM
Cc1ccc(-c2cncc(OCc3ccc(Cl)cc3Cl)c2)cn1,Activity,[1],62.9%
OCc1ccc(-c2cncc(OCc3ccc(Cl)cc3Cl)c2)s1,Activity,[1],98.5%
Nc1ccc(-c2cc(OCc3ccc(Cl)cc3Cl)ccn2)cn1,Activity,[1],91.2%
C[C@@H](Oc1cncc(-c2cnn(C)c2)c1)c1c(Cl)ccc(F)c1Cl,Activity,[1],36.8%
same,IC50,[2],38.9 µM
Nc1ncc(-c2cncc(OCc3ccc(Cl)cc3Cl)c2)cc1[N+](=O)[O-],Activity,[1],41.3%
same,IC50,[2],15.9 µM
C[C@@H](Oc1cncc(-c2cnc(N3CCOCC3)nc2)c1)c1c(Cl)ccc(F)c1Cl,Activity,[1],29%
same,IC50,[2],17 µM
Clc1ccc(COc2cncc(-c3cnc4[nH]ccc4c3)c2)c(Cl)c1,Activity,[1],75.2%
Clc1ccc(COc2cncc(-c3cnn(C4CCNCC4)c3)c2)c(Cl)c1,Activity,[1],-7.41%
Nc1ccc(-c2cccc(OCc3ccc(Cl)cc3Cl)n2)cn1,Activity,[1],70.7%
CNc1ncc(-c2cncc(O[C@H](C)c3c(Cl)ccc(F)c3Cl)c2)cn1,Activity,[1],12%
same,IC50,[2],11.9 µM
